Experimental data published in the Kinase Knowledgebase extract (Sharma et al. 2016).

Legend:
[1] = molecular target: PIK3CG (human) (UniProt P48736); assay: Assessment of PIK3CG Kinase Activity
[2] = molecular target: PIK3CA (human) (UniProt P42336); assay: Assessment of PIK3CA Kinase Activity
PIK3CA (human), sequence (P42336 whole entry, looked up): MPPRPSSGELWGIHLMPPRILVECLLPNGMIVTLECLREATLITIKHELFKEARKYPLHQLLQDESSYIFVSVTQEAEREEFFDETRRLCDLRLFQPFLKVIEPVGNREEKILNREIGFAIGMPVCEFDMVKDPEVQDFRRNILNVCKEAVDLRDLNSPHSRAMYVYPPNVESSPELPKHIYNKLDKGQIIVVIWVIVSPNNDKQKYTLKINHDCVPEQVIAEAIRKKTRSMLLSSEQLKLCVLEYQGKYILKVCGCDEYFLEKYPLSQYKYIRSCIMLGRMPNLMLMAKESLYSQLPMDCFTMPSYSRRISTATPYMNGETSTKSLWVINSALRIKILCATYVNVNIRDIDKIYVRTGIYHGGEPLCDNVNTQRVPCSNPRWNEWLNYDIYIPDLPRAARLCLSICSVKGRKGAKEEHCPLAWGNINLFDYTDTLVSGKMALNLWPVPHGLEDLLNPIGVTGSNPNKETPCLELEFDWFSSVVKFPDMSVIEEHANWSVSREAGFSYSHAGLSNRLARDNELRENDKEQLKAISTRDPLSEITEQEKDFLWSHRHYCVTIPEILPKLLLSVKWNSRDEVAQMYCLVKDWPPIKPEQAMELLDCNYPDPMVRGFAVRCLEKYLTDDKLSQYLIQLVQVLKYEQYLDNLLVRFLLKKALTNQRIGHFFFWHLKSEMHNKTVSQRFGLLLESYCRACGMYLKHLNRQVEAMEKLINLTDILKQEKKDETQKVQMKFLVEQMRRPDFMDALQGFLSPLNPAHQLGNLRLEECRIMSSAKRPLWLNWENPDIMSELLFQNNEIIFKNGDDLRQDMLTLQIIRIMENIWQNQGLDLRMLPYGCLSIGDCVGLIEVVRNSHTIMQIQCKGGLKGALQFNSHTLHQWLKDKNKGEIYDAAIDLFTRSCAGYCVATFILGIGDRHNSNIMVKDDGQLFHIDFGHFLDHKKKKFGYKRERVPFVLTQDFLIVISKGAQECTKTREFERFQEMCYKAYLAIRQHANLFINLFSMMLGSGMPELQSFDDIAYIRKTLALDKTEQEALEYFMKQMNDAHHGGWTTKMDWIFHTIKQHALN

PIK3CG (human), sequence (P48736 whole entry, looked up): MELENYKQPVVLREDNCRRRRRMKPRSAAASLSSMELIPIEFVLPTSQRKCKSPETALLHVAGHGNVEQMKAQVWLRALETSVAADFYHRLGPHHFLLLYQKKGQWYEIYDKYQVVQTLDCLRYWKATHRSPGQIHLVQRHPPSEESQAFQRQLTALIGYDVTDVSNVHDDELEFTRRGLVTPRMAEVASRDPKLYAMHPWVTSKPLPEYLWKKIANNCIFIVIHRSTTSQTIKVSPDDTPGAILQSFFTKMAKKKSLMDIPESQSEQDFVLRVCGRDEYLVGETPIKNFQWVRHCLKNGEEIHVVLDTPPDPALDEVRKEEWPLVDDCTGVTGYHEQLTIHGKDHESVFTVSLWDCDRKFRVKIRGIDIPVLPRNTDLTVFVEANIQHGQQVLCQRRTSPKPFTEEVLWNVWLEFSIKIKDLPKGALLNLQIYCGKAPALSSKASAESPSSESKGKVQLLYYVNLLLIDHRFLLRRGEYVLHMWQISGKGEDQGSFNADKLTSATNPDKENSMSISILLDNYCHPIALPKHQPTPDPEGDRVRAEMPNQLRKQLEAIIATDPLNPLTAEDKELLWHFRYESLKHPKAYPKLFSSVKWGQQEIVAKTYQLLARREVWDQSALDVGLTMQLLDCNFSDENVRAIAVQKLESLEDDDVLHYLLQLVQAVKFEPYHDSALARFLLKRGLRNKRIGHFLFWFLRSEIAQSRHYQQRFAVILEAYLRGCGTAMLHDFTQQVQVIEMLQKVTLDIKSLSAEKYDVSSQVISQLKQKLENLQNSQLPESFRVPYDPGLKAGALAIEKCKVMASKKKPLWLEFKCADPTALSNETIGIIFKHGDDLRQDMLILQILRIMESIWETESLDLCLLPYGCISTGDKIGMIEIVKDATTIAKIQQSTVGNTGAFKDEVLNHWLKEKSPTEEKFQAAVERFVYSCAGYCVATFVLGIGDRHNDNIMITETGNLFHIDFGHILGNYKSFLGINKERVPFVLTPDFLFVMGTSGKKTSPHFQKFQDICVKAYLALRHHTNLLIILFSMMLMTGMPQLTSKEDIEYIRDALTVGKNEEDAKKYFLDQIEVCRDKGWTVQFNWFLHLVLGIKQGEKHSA

Ki [1] [nM] | Ki [2] [nM] | SMILES
< 100 |  | COc1cncc(-c2ccc3nc(Nc4cccnc4)sc3c2)c1
< 100 | < 100 | FC(F)(F)c1cncc(-c2ccc3nc(Nc4ccncn4)sc3c2)c1
< 100 |  | COc1cncc(-c2ccc3nc(Nc4cccc(NC(C)=O)c4)sc3c2)c1
< 100 | < 100 | COc1cc(-c2ccc3nc(Nc4cnccn4)sc3c2)cnc1N
< 100 | < 100 | COc1ncc(-c2ccc3nc(Nc4cccnc4)sc3n2)cc1OC(C)C
< 100 | < 100 | CCOc1ncc(-c2ccc3nc(Nc4cnccn4)sc3c2)cc1OC
< 100 | < 100 | COc1cncc(Nc2nc3ccc(-c4cnc(OC)c(OC)c4)cc3s2)n1
< 100 | < 100 | COc1cncc(-c2ccc3nc(Nc4nccs4)sc3c2)c1
< 100 | < 100 | COc1cncc(-c2ccc3nc(Nc4ccc(C)nn4)sc3c2)c1
< 100 | < 100 | COc1cncc(-c2ccc3nc(Nc4ccn(C)n4)sc3c2)c1
 | < 100 | FC(F)(F)c1cncc(-c2ccc3nc(Nc4cnccn4)sc3c2)c1
< 100 | < 100 | COc1cccc(Nc2nc3ccc(-c4cnc(OC)c(OC)c4)cc3s2)n1
< 100 | < 100 | COc1cc(-c2ccc3nc(Nc4cccc(C)n4)sc3c2)cnc1OC
< 100 | < 100 | COc1ncc(-c2ccc3nc(Nc4cnccn4)sc3n2)cc1OC(C)C
 | < 100 | CCN(CC)C(=O)c1cccc(Nc2nc3ccc(-c4cncc(OC)c4)cc3s2)n1
< 100 |  | CCc1ncc(-c2ccc3nc(Nc4cnccn4)sc3c2)cc1OC
< 100 |  | COc1cncc(-c2ccc3nc(Nc4cccc(C)n4)sc3c2)c1

Ki [1] [nM] | Ki [2] [nM] | SMILES
< 100 | < 100 | COc1cc(-c2ccc3nc(Nc4ncc(C)s4)sc3c2)cnc1OC
< 100 |  | CNC(=O)Cc1ccc(Nc2nc3ccc(-c4cncc(OC)c4)cc3s2)cc1
< 100 | < 100 | COc1cncc(-c2ccc3nc(Nc4cnccn4)sc3c2)c1
< 100 | < 100 | COc1cncc(-c2ccc3nc(Nc4ccncn4)sc3c2)c1
< 100 | < 100 | COc1cc(-c2ccc3nc(Nc4ccccn4)sc3c2)cnc1OC
< 100 | < 100 | FC(F)(F)c1cncc(-c2ccc3nc(Nc4cnn(CC5CCCO5)c4)sc3c2)c1 (centres undefined)
< 100 | < 100 | COc1ncc(-c2ccc3nc(Nc4cnccn4)sc3c2)cc1OC(C)C
< 100 |  | Cc1ccc(Nc2nc3ccc(-c4cncc(C(F)(F)F)c4)cc3s2)nn1
< 100 |  | COc1cncc(-c2ccc3nc(Nc4ccc(N)cc4)sc3c2)c1
< 100 | < 100 | COc1cc(-c2ccc3nc(Nc4cncc(C)n4)sc3c2)cnc1OC
< 100 | < 100 | CCOc1cc(-c2ccc3nc(Nc4cnccn4)sc3c2)cnc1OC
< 100 | < 100 | COc1cc(-c2ccc3nc(Nc4cnccn4)sc3c2)cnc1C
< 100 | < 100 | COc1cc(-c2ccc3nc(Nc4nccc(C)n4)sc3c2)cnc1OC
< 100 | < 100 | COc1cncc(-c2ccc3nc(Nc4ccc5nc[nH]c5c4)sc3c2)c1
< 100 | < 100 | CCOc1ncc(-c2ccc3nc(Nc4cnccn4)sc3n2)cc1OC
< 100 |  | Cn1cc(Nc2nc3ccc(-c4cncc(C(F)(F)F)c4)cc3s2)cn1

Further lines, the compound ahead of its results:

SMILES | Ki [1] [nM] | Ki [2] [nM]
COc1cc(-c2ccc3nc(Nc4cccnc4)sc3n2)cnc1OC | < 100 | < 100
COc1cncc(-c2ccc3nc(Nc4nncs4)sc3c2)c1 | < 100 | 
CCn1cc(Nc2nc3ccc(-c4cncc(C(F)(F)F)c4)cc3s2)cn1 |  | < 100
COc1cc(-c2ccc3nc(Nc4cnccn4)sc3n2)cnc1OC | < 100 | 
COc1cc(-c2ccc3nc(Nc4cc[nH]n4)sc3c2)cnc1OC | < 100 | < 100
O=C(O)Cn1cc(Nc2nc3ccc(-c4cncc(C(F)(F)F)c4)cc3s2)cn1 | < 100 | < 100
COCCn1cc(Nc2nc3ccc(-c4cncc(C(F)(F)F)c4)cc3s2)cn1 | < 100 | < 100
COc1cncc(-c2ccc3nc(Nc4cc[nH]n4)sc3c2)c1 | < 100 | < 100
CCCn1ccc(Nc2nc3ccc(-c4cnc(OC)c(OC)c4)cc3s2)n1 | < 100 | < 100
COc1cncc(-c2ccc3nc(Nc4ccc(Cl)nn4)sc3c2)c1 | < 100 | 
COc1cc(-c2ccc3nc(Nc4cccnc4)sc3c2)cnc1OC | < 100 | < 100
Nc1ccc(Nc2nc3ccc(-c4cncc(C(F)(F)F)c4)cc3s2)cn1 | < 100 | 
CCCCNS(=O)(=O)c1cccc(Nc2nc3ccc(-c4cncc(OC)c4)cc3s2)c1 | < 100 | 
CNC(=O)Cn1cc(Nc2nc3ccc(-c4cncc(C(F)(F)F)c4)cc3s2)cn1 | < 100 | < 100
COc1cncc(-c2ccc3nc(Nc4cncc(C)n4)sc3c2)c1 | < 100 | < 100
COc1cncc(-c2ccc3nc(Nc4cccnc4)sc3n2)c1 | < 100 | 
CCOc1cc(-c2ccc3nc(Nc4cnccn4)sc3c2)cnc1OCC | < 100 | < 100
COc1cc(-c2ccc3nc(Nc4ncccn4)sc3c2)cnc1OC | < 100 | < 100

SMILES | Ki [1] [nM] | Ki [2] [nM]
CCOc1cc(-c2ccc3nc(Nc4cccnc4)sc3n2)cnc1OCC | < 100 | 
COc1cc(-c2ccc3nc(Nc4ccn(C)n4)sc3c2)cnc1OC | < 100 | < 100
COc1cncc(-c2ccc3nc(Nc4nc(C)cs4)sc3c2)c1 | < 100 | 
CCN(CC)C(=O)c1cccc(Nc2nc3ccc(-c4cncc(OC)c4)cc3s2)c1 | < 100 | 
COc1cncc(-c2ccc3nc(Nc4ccc(CC(N)=O)cc4)sc3c2)c1 | < 100 | 
CCOc1cncc(Nc2nc3ccc(-c4cnc(OC)c(OC)c4)cc3s2)n1 | < 100 | < 100
FC(F)(F)c1cncc(-c2ccc3nc(Nc4cccnc4)sc3n2)c1 | < 100 | 
CCOc1ncc(-c2ccc3nc(Nc4cccnc4)sc3n2)cc1OC | < 100 | < 100
COc1cncc(-c2ccc3nc(Nc4cccc(S(C)(=O)=O)c4)sc3c2)c1 | < 100 | 
COc1cncc(-c2ccc3nc(Nc4ccccn4)sc3c2)c1 | < 100 | 
COc1cc(-c2ccc3nc(Nc4cnccn4)sc3c2)cnc1OC | < 100 | < 100
COc1cncc(-c2ccc3nc(Nc4ccc(N(C)C(C)=O)cc4)sc3c2)c1 | < 100 | 
COc1cncc(-c2ccc3nc(Nc4ccc5c(c4)N(C(C)=O)CC5)sc3c2)c1 | < 100 | 
COc1cc(-c2ccc3nc(Nc4ccncn4)sc3c2)cnc1OC | < 100 | < 100
CCOc1cc(-c2ccc3nc(Nc4cnccn4)sc3n2)cnc1OCC | < 100 | < 100
COc1cncc(-c2ccc3nc(Nc4cccc(CO)c4)sc3c2)c1 |  | < 100
COc1cc(-c2ccc3nc(Nc4nnc(C)s4)sc3c2)cnc1OC | < 100 | < 100
